Reference: PMC2199082 (The Journal of Experimental Medicine, 1997)
No end group written: not given here.

Legend:
murine calvaria = assay: Calvarial bone resorption assay; assay type: cell-based, mouse; details: for osteolytic activity of peptides in the calvarial assay: graded concentrations, three separate experiments
[1] = tested on: human osteoblast-like cell line MG63; assay: Osteoblast proliferation; assay type: cell-based; details: subconfluent MG63, 24 h, DMEM 2% FCS, [3H]thymidine last 6 h

## lipoarabinomannan [Mt LAM, reference compound]
Murine calvaria; added at a concentration of 1 μg/ml
  osteolytic activity: no osteolytic activity

## 59–99: synthetic Mt cpn10 peptide, residues 59–99 (IPLDVAEGDTVIYSKYGGTEIKYNGEEYLILSARDVLAVVS; UniProt P9WPE5 59-99, looked up, fragment)
Murine calvaria
  osteolytic activity of peptides in the calvarial assay: inactive

## 46–99: synthetic Mt cpn10 peptide, residues 46–99 (VGPGRWDEDGEKRIPLDVAEGDTVIYSKYGGTEIKYNGEEYLILSARDVLAVVS; UniProt P9WPE5 46-99, looked up, fragment)
Murine calvaria
  osteolytic activity of peptides in the calvarial assay: inactive

## 54–99: synthetic Mt cpn10 peptide, residues 54–99 (DGEKRIPLDVAEGDTVIYSKYGGTEIKYNGEEYLILSARDVLAVVS; UniProt P9WPE5 54-99, looked up, fragment)
Murine calvaria
  osteolytic activity of peptides in the calvarial assay: inactive

## 1–58: synthetic Mt cpn10 peptide, residues 1–58 (MAKVNIKPLEDKILVQANEAETTTASGLVIPDTAKEKPQEGTVVAVGPGRWDEDGEKR; also: dimer; UniProt P9WPE5 1-58, looked up, fragment)
Murine calvaria
  osteolytic activity of peptides in the calvarial assay: inactive

## 51–99: synthetic Mt cpn10 peptide, residues 51–99 (WDEDGEKRIPLDVAEGDTVIYSKYGGTEIKYNGEEYLILSARDVLAVVS; UniProt P9WPE5 51-99, looked up, fragment)
Murine calvaria
  osteolytic activity of peptides in the calvarial assay: inactive

## polymyxin B [reference compound]
Murine calvaria
  effect of addition on bone resorbing activity of r-Mt cpn10: no effect
  effect of addition on bone resorbing activity of the Mt sonicate: no effect
  effect on osteolytic activity of peptides 26–99 and 65–99: no inhibitory effects

## TTTASGLVIPDTAKE [21–35]
Murine calvaria
  osteolytic activity of peptides in the calvarial assay: osteolytic activity

## calcitonin (CGNLSTCMLGTYTQDFNKFHTFPQTAIGVGAP; ends and bridges not checked; cysteine pairing not given here; UniProt P01258 85-116, looked up) [reference compound]
Murine calvaria; calcitonin at 10 ng/ml, results not shown
  effect on r-Mt cpn10-induced bone resorption: blocked

## 65–99: synthetic Mt cpn10 peptide, residues 65–99 (EGDTVIYSKYGGTEIKYNGEEYLILSARDVLAVVS; UniProt P9WPE5 65-99, looked up, fragment)
Murine calvaria
  osteolytic activity of peptides in the calvarial assay: reproducible osteolytic activity

## GGIVLTGSAAA [GroES residues 23–33]
Murine calvaria
  osteolytic activity of peptides in the calvarial assay: osteolytic activity

B1: r-Mt cpn10: recombinant Mycobacterium tuberculosis chaperonin 10 expressed in Escherichia coli, purified by reversed-phase HPLC to >97% purity (protein, UniProt P9WPE5 2-100, looked up)
Co-chaperonin GroES: AKVNIKPLEDKILVQANEAETTTASGLVIPDTAKEKPQEGTVVAVGPGRWDEDGEKRIPLDVAEGDTVIYSKYGGTEIKYNGEEYLILSARDVLAVVSK
modifications: recombinant, expressed in E. coli
MG63 cells
  cytotoxicity (lactate dehydrogenase release): not due to cytotoxicity
[1]
  concentrations causing significant inhibition of cell proliferation: ≥ 1 nM
Murine calvaria
  concentration at which osteolytic activity (calcium release) was noted: 1 ng/mL
  concentration at which osteolytic activity was noted, molar equivalent: 100 pmol
  stimulation of bone resorption, measured as calcium release into the tissue culture medium: dose-dependent stimulation of calcium release
